Results as given in PubChem BioAssay (NCI).
Values joined by “and” are separate entries in the source; they are usually repeats but may differ in a detail not shown here. Equal values may be shown once.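 Interpolation was linear, between the two tested concentrations surrounding the appropriate level; five concentrations were tested over 48 hours in 96-well plates. GI50 marks 50% less growth. The concentration for full growth arrest is given as TGI.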

Assays:
Experiment in all cases: NCI-60 cell line screen, 48 h
A498 renal = system: A498 renal
UO-31 renal = system: UO-31 renal
A549 NSCLC = system: A549 NSCLC
TK-10 renal = system: TK-10 renal
RXF 393 renal = system: RXF 393 renal
MOLT-4 leukemia = system: MOLT-4 leukemia
LOX IMVI melanoma = system: LOX IMVI melanoma
COLO 205 colon = system: COLO 205 colon
T-47D breast = system: T-47D breast
MCF7 breast = system: MCF7 breast
MDA-MB-435 = system: MDA-MB-435
HS 578T breast = system: HS 578T breast

| Compound | TGI (A498 renal) [µM] | TGI (UO-31 renal) [µM] | TGI (A549 NSCLC) | TGI (TK-10 renal) [µM] | TGI (RXF 393 renal) [µM] | TGI (MOLT-4 leukemia) [µM] | TGI (LOX IMVI melanoma) [µM] | TGI (COLO 205 colon) [µM] | GI50 (A498 renal) [µM] | GI50 (UO-31 renal) [µM] | GI50 (TK-10 renal) [µM] | GI50 (T-47D breast) [µM] | TGI (MCF7 breast) [µM] | TGI (T-47D breast) | TGI (MDA-MB-435) [µM] | TGI (HS 578T breast) [µM] | GI50 (MOLT-4 leukemia) [µM] | GI50 (COLO 205 colon) [µM] | GI50 (HS 578T breast) [µM] |
| --- | --- | --- | --- | --- | --- | --- | --- | --- | --- | --- | --- | --- | --- | --- | --- | --- | --- | --- | --- |
| O=C(CSc1nnc(Cc2ccccc2)o1)Nc1ccc(Cl)cc1 | > 100 | > 100 | > 100 µM | > 100 | > 100 | > 100 | > 100 | > 100 |  |  |  |  |  |  |  |  |  |  |  |
| CN(C)c1ccc(/C=C/c2sc3ccc4ccccc4c3[n+]2C)cc1 | 2.85 | 3.84 |  | 1.92 |  |  |  |  | 0.539 | 0.401 | 0.41 | 0.367 |  |  |  |  |  |  |  |
| CC(=O)Oc1ccn2nc(C)c(Br)c2c1Br | 72.9 | > 29.6 | 57.6 µM | > 94.8 |  | 34.9 | 36 | 38 |  |  |  |  | 36.1 | > 76.8 µM | 35.2 | > 100 |  |  |  |
| O=c1ccc2ccccc2o1 | > 100 | > 100 | > 100 µM | > 100 | > 100 | > 100 | > 100 | > 100 |  |  |  |  |  |  |  |  |  |  |  |
| COC(=O)[C@@H]1c2cc3c(c(O)c2[C@@H](OC)C[C@@]1(C)O)C(=O)c1c(O)cc2c(c1C3=O)OC1O[C@@]2(C)[C@H](O)[C@@H](N(C)C)[C@@H]1O | 0.764 | 3.12 | 1.45 µM |  | 1.37 | > 150 |  | 1.98 |  |  |  |  | 6.48 |  |  |  |  |  |  |
| Oc1cc(Cl)cc2cc(Br)cnc12 | > 88.7 | > 72.1 | > 42.6 µM | > 100 | 19.2 | 6.96 |  | > 100 |  |  |  |  | > 29.9 | > 59.6 µM | > 100 | > 100 |  |  |  |
| Cc1cc2c(c3oc(C(O)(CO)C4CO4)cc(=O)c13)C(=O)c1c(O)cccc1C2=O (stereo not drawn) | 0.00403 |  | 0.0139 µM and 0.0213 µM and 0.0606 µM |  | 0.00254 | > 37.5 |  | 0.00115 | 0.00375 |  |  | 0.00375 |  | 0.00683 µM and 0.00232 µM and 0.0146 µM | 0.0052 | 0.0078 | > 37.5 | 0.0001 | 0.000702 |
| CCOC(OCC)C(CC)[Se]c1ccccc1[N+](=O)[O-] (stereo not drawn) | 11.6 | > 100 | > 63.3 µM | > 100 | 5.59 | > 86.7 | 37.8 | 8.92 |  |  |  |  |  | > 100 µM |  | > 100 |  |  |  |
| c1ccc2c(c1)CCc1c-2n(CCN2CCCCC2)c2ccccc12 |  | 23.7 | 43.7 µM | 35.9 |  | 44.8 | 29.6 | 26.2 |  |  |  |  | 30.9 | 44.5 µM | 74.4 | 35.4 |  |  |  |
| Oc1[nH]c2ccccc2c1N=NC1=NCCCCN1 | > 100 | > 100 | > 100 µM | > 100 |  | > 100 | > 100 | > 100 |  |  |  |  | > 100 | > 100 µM | > 100 | > 100 |  |  |  |
| OCCCSc1ccccc1SCCCO |  | > 100 | > 100 µM | > 100 |  | > 100 | > 100 | > 100 |  |  |  |  | > 100 | > 100 µM | > 100 |  |  |  |  |
| CC(C)(C)c1cc(-c2ccc(-c3cc(C(C)(C)C)c(O)c(C(C)(C)C)c3)cc2)cc(C(C)(C)C)c1O | > 100 | > 100 | > 100 µM | > 100 | > 100 | > 100 | > 100 | > 100 |  |  |  |  | > 100 | > 100 µM | > 100 |  |  |  |  |
| Cc1nc2c(nc1C)-c1c(c3c(n1Cc1ccccc1)C(=O)CCC3)C(=O)C2=O | 38 | 4.07 | > 100 µM | 38.1 |  | > 100 |  | > 100 |  |  |  |  | 5.39 | > 100 µM | 5.98 | 7.99 |  |  |  |
| Cn1c(-c2csc(-c3ccc(Cl)cc3)n2)n[nH]c1=S |  | 44.9 | > 100 µM | 40.2 | 46.3 | > 100 | 73 | > 100 |  |  |  |  | > 100 | > 100 µM | > 100 | 83.7 |  |  |  |
| O=S(=O)(O)CCS | > 100 | > 100 | > 100 µM |  | > 100 | > 100 | > 100 | > 100 |  |  |  |  | > 100 | > 100 µM | > 100 |  |  |  |  |
| O=c1nc2n(cc1/C=C\Br)C1CC(O)C(CO2)O1 (stereo not drawn) | > 100 | > 100 | > 100 µM | > 100 | 57 | > 100 | > 100 | > 100 |  |  |  |  | > 100 | > 100 µM | > 100 |  |  |  |  |
| Cc1cccc2sc(NC(=O)c3cc([N+](=O)[O-])ccc3Cl)nc12 | > 100 | 10.4 | 51.7 µM | 11.4 | 12.9 | > 100 | 6.64 | > 71.3 |  |  |  |  | > 100 | > 100 µM | 12.6 |  |  |  |  |
| CCC(=O)OCc1ccc2oc(=O)c(C(=O)Oc3cncc(Cl)c3)cc2c1 |  | > 100 | > 100 µM | > 100 | > 100 | > 100 | > 100 | > 100 |  |  |  |  | > 100 | > 100 µM | > 100 | > 100 |  |  |  |
| COC(=O)C(NC(=O)CNC(=O)CSc1nnc(COc2ccc(Cl)cc2)n1-c1ccccc1)C(C)C (stereo not drawn) | 56.7 | 33.3 | > 100 µM | 34.3 | 32.8 | > 100 | 50 | 34.1 |  |  |  |  | 30.4 |  | 47.4 | 62.9 |  |  |  |
| N#CCCC(CC#N)N1CCN(CCO)CC1 (stereo not drawn) | > 100 | > 100 | > 100 µM | > 100 | > 100 | > 100 |  | > 100 |  |  |  |  | > 100 | > 100 µM | > 100 | > 100 |  |  |  |
| COc1ccc(/C(Cl)=C(\C=O)c2ccc(F)cc2)cc1 | 52.7 | 42.2 |  | > 100 |  | 50.9 | 39.3 | 31.9 |  |  |  |  |  |  |  |  |  |  |  |
